pIC50: −log10 of the molar value. Read-outs that look alike come from different tables or passages of the source.
What was measured:
Format in all cases: cell-based
bovine platelets = assay: Thrombin-stimulated release from platelets; conditions: Bos taurus, Platelet
mast cells = assay: Polymyxin-stimulated release from mast cells; conditions: Mast cell
[1] = system: Macrophages isolated from the bone marrow of mice; assay: Zymosan-stimulated release of hydrogen peroxide; conditions: Mus musculus, Macrophage, 2 hours at 37° C, read-out: IC₅₀, zymosan-stimulated release of hydrogen peroxide
Protocol: The production of hydrogen peroxide is used as a measure for the respiratory burst of phagocytic cells. Macrophages 10 to 14 days old, isolated from the bone marrow of mice are incubated for 10 to 30 minutes in the presence of the test compound. Zymosan (0.5 ml) is then added as phagocytic stimulant and the mixture is incubated for a further 2 hours at 37° C in the presence of homovallinic acid (0.5 ml, 400 µM) and horse radish peroxidase (4 U/ml). The reaction is stopped by the addition of 0.25 ml 0.1 M glycine-NaOH buffer, pH 12, containing 25 mM EDTA, the samples centrifuged at 2200 g for 10 minutes, and the homovallinic acid oxidation product, as a measure of the amount of H₂O₂ produced, measured fluorimetrically.

[2] = system: Peritoneal exudate cells of NMRI mice (macrophage population); assay: TPA-induced prostaglandin E₂ (PGE₂) release; conditions: Mus musculus, TPA 20 ng/ml, 1h, read-out: IC₅₀ for the inhibition of TPA-induced PGE₂ release
Protocol: Peritoneal exudate cells of NMRI mice (strain NMRI) pretreated with 1.5 ml thioglycollate ip 3 days previously are harvested by peritoneal lavage, washed in phosphate-buffered saline (PBS without Ca⁺⁺ and Mg⁺⁺) and resuspended in DMEM medium supplemented with 10 % fetal calf serum (FCS). 1x10⁶ cells in 1 ml are placed into wells of Costar-24 tissue culture plates and cells are allowed to adhere for 24 hours at 37°C and 5 % CO₂. Cells are then washed twice with PBS and the remaining, more than 95 % pure macrophage population is stimulated with 12-O-tetradecanoylphorbol-13-acetate (TPA) (20 ng/ml, 1h) in DMEM medium without FCS. Conditioned media are centrifuged and PGE₂ levels are determined using a ¹²⁵I radioimmunoassay. Samples are assayed in duplicate. Inhibition of PGE₂ release by test compounds is calculated as percent inhibition compared to the controls.

[3] = system: Macrophages isolated from the bone marrow of mice; assay: Inhibition of Con A-stimulated plasminogen activator release; conditions: Mus musculus, Macrophage; Con A 100 µg/ml, 24 hours; read-out: IC₅₀, Con A-stimulated plasminogen activator release
Protocol: (§1) Macrophages 10 to 14 days old isolated from the bone marrow of mice are incubated in monolayers with the test compound in the presence of Concanavalin A (Con A) (100 µg/ml) as soluble stimulant. After 24 hours the cell-free medium is collected and macrophage activation is investigated biochemically as the extent of plasminogen activator release, assayed photometrically as the plasminogen-dependent amidolysis of D-Val-Phe-Lys-4-nitroanilide according to the principles described in J.C. Drapier et al., Biochemie 61 (1979) 463-471. Cell viability is assayed by measurement of lactate dehydrogenase release according to the method of H.U. Bergmeyer and E. Bernt, Methoden der Enzymatischen Analyse, 3. Auflage, Verlag Chemie (1974) 612-615, adapted as a kinetic assay using microtiter plates. All cultures are checked microscopically for qualitative morphological modification.

12 + 15-lipoxygenase = 12 + 15-lipoxygenase inhibition (neutrophil functions); conditions: read-out: IC₅₀ for 12 + 15-lipoxygenase
[4] = system: OF₁-mouse resident peritoneal macrophages; assay: Zymosan-induced release of TXB₂, PGE₂ and LTC₄; conditions: Peritoneal macrophage, 2 hours
Protocol: The test compound is added in various concentrations to monolayers of OF₁-mouse resident peritoneal macrophages isolated as described in J. Schnyder and M. Baggiolini, J. Exp. Med. 148 (1978) 435-450. 0.5 ml of the suspension containing 1.2 x 10⁶ cells/ml DMEM (Dulbecco's modified Eagles medium, non-essential amino acids, 2 mM L-glutamine, 100 U/ml penicillin/streptomycin) containing 2 % heat-inactivated fetal calf serum and 20 U heparin/ml is added to each well of 24-well plates (diameter 1.6 cm) and allowed to adhere at 37°C for 2 hours in 5 % CO₂/air. The monolayers are then washed with PBS and 0.5 ml DMEM containing 1 % heat-inactivated fetal calf serum added. Various concentrations of the test substance in the same medium (containing a maximum final concentration of 1 % DMSO) are added, the final volume being 0.98 ml, and after 10 minutes at 37°C, the cells are stimulated by addition of 20 µl of a 1-20 v/v dilution of zymosan particles (Sigma Chemie, Deisenhofen, FRG) in 50 mg/ml PBS. After 2 hours at 37° C, the media are removed, centrifuged at 1300 g for 5 minutes and decanted. The cells are lysed with 1ml 0.01 % digitonin. The supernatants are then analysed by radioimmunoassay procedures for thromboxane B₂, prostaglandin E₂ and leukotriene C₄. Lactate dehydrogenase activities in the medium and cell lysates are also measured as an indication of cell toxicity.

[5] = system: lactate dehydrogenase release; assay: Cytotoxicity: release of lactate dehydrogenase; conditions: cytotoxicity control of the in vitro assays
Protocol: as §1
The test compound is added in various concentrations to monolayers of OF₁-mouse resident peritoneal macrophages isolated as described in J. Schnyder and M. Baggiolini, J. Exp. Med. 148 (1978) 435-450. […] The supernatants are then analysed by radioimmunoassay procedures for thromboxane B₂, prostaglandin E₂ and leukotriene C₄. Lactate dehydrogenase activities in the medium and cell lysates are also measured as an indication of cell toxicity.

CN(C/C=C/c1ccc(O)cc1)Cc1cccc2ccccc12 [compound of the invention, (E)-N-methyl-N-[3-(4-hydroxyphenyl)-2-propenyl]-1-naphthalene-methanamine]
pIC50 (bovine platelets; read-out: IC₅₀ for thrombin-stimulated release of N-glucosaminidase): < 4.00
pIC50 (bovine platelets; read-out: IC₅₀ for thrombin-stimulated release of serotonin): < 4.00
pIC50 (mast cells; read-out: IC₅₀ for polymyxin-stimulated release of histamine): < 4.00
pIC50 (mast cells; read-out: IC₅₀ for polymyxin-stimulated release of β-glucosaminidase): < 4.00
pIC50 [1]: 5.68
pIC50 [2]: 5.52 to 6.00
pIC50 [3]: 5.74
pIC50 (12 + 15-lipoxygenase): 4.00
pIC50 ([4]; read-out: IC₅₀ for LTC₄): 5.10
pIC50 ([4]; read-out: IC₅₀ for PGE₂): 5.82
pIC50 ([4]; read-out: IC₅₀ for TXB₂): 5.22
release of lactate dehydrogenase [5]: below 10%

From patent EP0385952A2, “Use of a naphthalenmethanamino derivative as antiinflammatory agent and pharmaceutical compositions containing it” (SANDOZ AG, priority 1989, dated 1990)
